Measured values from ChEMBL document CHEMBL5036346, “Role of Chain Length and Degree of Unsaturation of Fatty Acids in the Physicochemical and Pharmacological Behavior of Drug-Fatty Acid Conjugates in Diabetes” (J Med Chem, 2021).
Active and inactive are the calls of the source. No cut-off for these calls is given here.

How the values were obtained:
[1] = tested on: Rattus norvegicus; experiment: Protection against STZ-induced oxidative stress-mediated liver toxicity in Wistar rat assessed as reduction in plasma ASAT level at 30 mg/kg, ip administered once daily for 5 weeks measured after 3 to 5 weeks; format: functional, organism-based; details: time 3-5 weeks
[2] = tested on: Rattus norvegicus; experiment: Antidiabetic activity against STZ-induced diabetic Wistar rat model assessed as decrease in fasting blood glucose level at 30 mg/kg, ip administered once daily for 5 weeks and measured after 5 weeks by glucometric analysis; format: functional, organism-based
[3] = tested on: Rattus norvegicus; experiment: Protection against STZ-induced renal toxicity in Wistar rat assessed as reduction in plasma uric acid level at 30 mg/kg, ip administered once daily for 5 weeks measured after 3 to 5 weeks; format: functional, organism-based; details: time 3-5 weeks
[4] = Half life in Wistar rat at 30 mg/kg, iv measured after 24 hrs by HPLC analysis; format: ADME, organism-based; details: in vivo; for half-life: Wistar
[5] = MRT in Wistar rat at 30 mg/kg, iv measured after 24 hrs by HPLC analysis; format: ADME, organism-based; details: in vivo
[6] = tested on: Rattus norvegicus; experiment: Protection against STZ-induced pancreatic beta cell destruction in Wistar rat assessed as proper arrangement of islets at 30 mg/kg, ip administered once daily for 5 weeks and measured on day 35 by Hematoxylin and eosin staining based analysis; format: functional, organism-based
[7] = Elimination rate constant in Wistar rat at 30 mg/kg,iv measured after 24 hrs by HPLC analysis; format: ADME, organism-based; details: in vivo
[8] = Volume of distribution in Wistar rat at 30 mg/kg, iv measured after 24 hrs by HPLC analysis; format: ADME, organism-based; details: in vivo
[9] = tested on: Rattus norvegicus; experiment: Protection against STZ-induced dyslipidemia in Wistar rat assessed as reduction in plasma triglyceride level at 30 mg/kg, ip administered once daily for 5 weeks measured after 3 to 5 weeks; format: functional, organism-based; details: time 3-5 weeks
[10] = AUC (0 to t) in Wistar rat at 30 mg/kg, iv measured after 24 hrs by HPLC analysis; format: ADME, organism-based; set-up: route intravenous, time 24 hrs, dose 30 mg/kg; details: in vivo
[11] = tested on: MIN6; experiment: Cytoprotective activity against cytokine-mediated cytotoxicity in mouse MIN6 cells assessed as increase in cell viability at 20 uM equiv. LSF incubated for 48 hrs in presence of cocktail of cytokines TNF-alpha/IL-1-beta/IFN-gamma by MTT assay; format: functional, cell-based
[12] = tested on: Rattus norvegicus; experiment: Antidiabetic activity against STZ-induced diabetic Wistar rat model assessed as increase in plasma insulin level at 30 mg/kg, ip administered once daily for 5 weeks and measured after 3 to 5 weeks; format: functional, organism-based; details: time 3-5 weeks
[13] = tested on: Rattus norvegicus; experiment: Protection against STZ-induced dyslipidemia in Wistar rat assessed as reduction in plasma cholesterol level at 30 mg/kg, ip administered once daily for 5 weeks measured after 3 to 5 weeks; format: functional, organism-based; details: time 3-5 weeks
[14] = tested on: Rattus norvegicus; experiment: Protection against STZ-induced oxidative stress-mediated liver toxicity in Wistar rat assessed as reduction in plasma ALAT level at 30 mg/kg, ip administered once daily for 5 weeks measured after 3 to 5 weeks; format: functional, organism-based; details: time 3-5 weeks
[15] = AUMC (0 to t) in Wistar rat at 30 mg/kg, iv measured after 24 hrs by HPLC analysis; format: ADME, organism-based; details: in vivo
[16] = tested on: MIN6; experiment: Cytotoxicity against mouse MIN6 cells assessed as cell viability at 20 uM equiv. LSF measured after 48 hrs by MTT assay; format: cell-based; details: min6, 48 h
[17] = Initial plasma concentration in Wistar rat at 30 mg/kg, iv by HPLC analysis; format: ADME, organism-based
[18] = AUC (0 to infinity) in Wistar rat at 30 mg/kg, iv by HPLC analysis; format: ADME, organism-based; set-up: time infinity, route intravenous, dose 30 mg/kg; details: in vivo; for AUC(0-inf): Wistar
[19] = tested on: Rattus norvegicus; experiment: Antidiabetic activity against STZ-induced diabetic Wistar rat model assessed as decrease in fasting blood glucose level at 30 mg/kg, ip administered once daily for 5 weeks and measured after 3 weeks by glucometric analysis; format: functional, organism-based
[20] = target: T1, Albumin (Bos taurus, UniProt P02769); experiment: Binding affinity to bovine serum albumin assessed as decrease in fluorescence intensity measured after 30 mins by fluorescence quenching method; format: ADME; details: cattle, isolated protein, 0.5 h
[21] = tested on: Erythrocyte; experiment: Induction of hemolysis in Wistar rat RBC at 20 uM equiv. LSF measured after 1 hr by spectrophotometric method; format: cell-based
[22] = tested on: Rattus norvegicus; experiment: Protection against STZ-induced inflammation in Wistar rat assessed as reduction in CD8+ T-cell infiltration into pancreatic islets at 30 mg/kg, ip administered once daily for 5 weeks and measured on day 35 by […] based analysis; format: functional, organism-based
[23] = AUMC (0 to infinity) in Wistar rat at 30 mg/kg, iv by HPLC analysis; format: ADME, organism-based; details: in vivo
[24] = tested on: Rattus norvegicus; experiment: Protection against STZ-induced inflammation in Wistar rat assessed as reduction in CD4+ T-cell infiltration into pancreatic islets at 30 mg/kg, ip administered once daily for 5 weeks and measured on day 35 by […] based analysis; format: functional, organism-based
[25] = Aggregation property of the compound assessed as critical micelle concentration by fluorescence based analysis; format: physicochemical
[26] = target: T1, Albumin; experiment: Binding affinity to bovine serum albumin assessed as bathochromic peak shift measured after 30 mins by fluorescence quenching method; format: ADME; details: cattle, isolated protein, 0.5 h
[27] = Drug uptake in mouse MIN6 cells assessed as lisofylline-level in cell lysates at 20 uM equiv. LSF measured after 6 hrs by HPLC analysis; format: ADME, subcellular; details: min6, 6 h
[28] = tested on: Rattus norvegicus; experiment: Antidiabetic activity against STZ-induced diabetic Wistar rat model assessed as decrease in mortality at 30 mg/kg, ip administered once daily for 5 weeks; format: functional, organism-based
[29] = Clearance in Wistar rat at 30 mg/kg, iv measured after 24 hrs by HPLC analysis; format: ADME, organism-based; details: in vivo
[30] = Prodrug release in rat plasma assessed as intact parent compound remaining measured after 72 hrs by HPLC analysis; format: ADME, cell-free
[31] = Clearance in Wistar rat at 15 mg/kg, iv measured after 24 hrs by HPLC analysis; format: ADME, organism-based; details: in vivo
[32] = AUC (0 to infinity) in Wistar rat at 15 mg/kg, iv by HPLC analysis; format: ADME, organism-based; set-up: time infinity, route intravenous, dose 15 mg/kg; details: in vivo
[33] = MRT in Wistar rat at 15 mg/kg, iv measured after 24 hrs by HPLC analysis; format: ADME, organism-based; details: in vivo
[34] = Elimination rate constant in Wistar rat at 15 mg/kg,iv measured after 24 hrs by HPLC analysis; format: ADME, organism-based; details: in vivo
[35] = tested on: Rattus norvegicus; experiment: Protection against STZ-induced pancreatic beta cell destruction in Wistar rat assessed as proper arrangement of islets at 15 mg/kg, ip administered once daily for 5 weeks and measured on day 35 by Hematoxylin and eosin staining based analysis; format: functional, organism-based
[36] = AUMC (0 to t) in Wistar rat at 15 mg/kg, iv measured after 24 hrs by HPLC analysis; format: ADME, organism-based; details: in vivo
[37] = Initial plasma concentration in Wistar rat at 15 mg/kg, iv by HPLC analysis; format: ADME, organism-based
[38] = AUMC (0 to infinity) in Wistar rat at 15 mg/kg, iv by HPLC analysis; format: ADME, organism-based; details: in vivo
[39] = Half life in Wistar rat at 15 mg/kg, iv measured after 24 hrs by HPLC analysis; format: ADME, organism-based; details: in vivo
[40] = Volume of distribution in Wistar rat at 15 mg/kg, iv measured after 24 hrs by HPLC analysis; format: ADME, organism-based; details: in vivo
[41] = AUC (0 to t) in Wistar rat at 15 mg/kg, iv measured after 24 hrs by HPLC analysis; format: ADME, organism-based; set-up: route intravenous, dose 15 mg/kg, time 24 hrs; details: in vivo
[42] = tested on: Rattus norvegicus; experiment: Antidiabetic activity against STZ-induced diabetic Wistar rat model assessed as decrease in fasting blood glucose level at 15 mg/kg, ip administered once daily for 5 weeks and measured after 3 weeks by glucometric analysis; format: functional, organism-based
[43] = tested on: Rattus norvegicus; experiment: Antidiabetic activity against STZ-induced diabetic Wistar rat model assessed as decrease in fasting blood glucose level at 15 mg/kg, ip administered once daily for 5 weeks and measured after 5 weeks by glucometric analysis; format: functional, organism-based

T1 sequence (P02769 whole entry): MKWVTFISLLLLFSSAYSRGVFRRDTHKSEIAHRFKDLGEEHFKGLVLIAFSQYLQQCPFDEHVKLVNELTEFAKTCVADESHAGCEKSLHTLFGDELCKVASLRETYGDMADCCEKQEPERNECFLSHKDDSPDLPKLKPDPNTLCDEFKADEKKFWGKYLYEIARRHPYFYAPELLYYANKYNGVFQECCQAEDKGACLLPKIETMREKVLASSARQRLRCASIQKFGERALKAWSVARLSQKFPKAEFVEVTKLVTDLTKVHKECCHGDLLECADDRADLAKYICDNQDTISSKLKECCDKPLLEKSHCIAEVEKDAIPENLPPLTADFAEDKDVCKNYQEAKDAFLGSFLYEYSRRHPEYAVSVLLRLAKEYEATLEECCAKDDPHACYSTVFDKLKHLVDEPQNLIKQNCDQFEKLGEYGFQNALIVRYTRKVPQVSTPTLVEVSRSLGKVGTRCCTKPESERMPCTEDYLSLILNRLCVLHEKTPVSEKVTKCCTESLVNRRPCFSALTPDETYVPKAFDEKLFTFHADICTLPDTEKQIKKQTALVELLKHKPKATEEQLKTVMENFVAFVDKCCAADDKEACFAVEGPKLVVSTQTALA

| Compound | k el at 24 h [7] [s⁻¹] | Vd [8] [L/kg] | AUC(0-t) at 24 h [10] [ng·h/mL] | AUMCt [15] [ng·h²/mL] | C0 [17] [ng/mL] | Kb [20] | AUMC [23] [ng·h²/mL] | CMC [25] [µg/mL] | Activity [1] | Activity [3] | Activity [6] | Activity [9] | Activity [11] | Activity [12] | Activity [13] | Activity [14] | Activity [16] | Activity [21] | Activity [22] | Activity [24] | other results |
| --- | --- | --- | --- | --- | --- | --- | --- | --- | --- | --- | --- | --- | --- | --- | --- | --- | --- | --- | --- | --- | --- |
| CC(CCCCn1c(=O)c2c(ncn2C)n(C)c1=O)OC(=O)CCCCC1CCSS1 (configuration not stated) | 0.000142 | 1.77 | 13500 | 67500 | 4120 | 2.05 10^4L/mol | 77300 | 6.31 | Active | Active | Active | Active | Active | Active | Active | Active | Non-Toxic | Non-Toxic | Active | Active | Activity [2]: inactive; t1/2 ([4]; 30 mg/kg, 24 h): 1.26 h; MRT ([5]; 30 mg/kg, 24 h): 5.16 h; AUC [18]: 13838.8 ng·h/mL; Activity [19]: inactive |
| C[C@@H](O)CCCCn1c(=O)c2c(ncn2C)n(C)c1=O [LISOFYLLINE] |  |  |  |  |  | 6.32 10^4L/mol |  |  |  |  |  |  |  |  |  |  | Non-Toxic |  |  |  | clearance [31]: 17 mL/min/kg; AUC(0-inf) [32]: 14700 ng·h/mL; MRT [33]: 0.818 h; k el at 24 h [34]: 0.000257 s⁻¹; Activity [35]: Active; AUMCt [36]: 12100 ng·h²/mL; C0 [37]: 16400 ng/mL; AUMC [38]: 12800 ng·h²/mL; half-life [39]: 0.752 h; Vd [40]: 0.962 L/kg; AUC(0-t) at 24 h [41]: 14700 ng·h/mL; Activity [42]: Active; Activity [43]: Active |

More lines, main results first:

| k el at 24 h [7] [s⁻¹] | Vd [8] [L/kg] | AUC(0-t) at 24 h [10] [ng·h/mL] | AUMCt [15] [ng·h²/mL] | C0 [17] [ng/mL] | Kb [20] | AUMC [23] [ng·h²/mL] | CMC [25] [µg/mL] | Compound | Activity [1] | Activity [3] | Activity [6] | Activity [9] | Activity [11] | Activity [12] | Activity [13] | Activity [14] | Activity [16] | Activity [21] | Activity [22] | Activity [24] | other results |
| --- | --- | --- | --- | --- | --- | --- | --- | --- | --- | --- | --- | --- | --- | --- | --- | --- | --- | --- | --- | --- | --- |
| 4.72e-05 | 13.8 | 3490 | 29900 | 267 | 5.55 10^4L/mol | 24800 | 7.4 | CCCCCCCCCCCCCCCC(=O)OC(C)CCCCn1c(=O)c2c(ncn2C)n(C)c1=O (configuration not stated) | Active | Active | Active | Active | Active | Active | Active | Active | Non-Toxic | Non-Toxic | Active | Active | Activity [26]: Active; Drug uptake [27]: Active; Activity [2]: Active; half-life [4]: 3.59 h; MRT ([5]; Wistar, read-out: MRT): 9.07 h; Activity [28]: Active; clearance [29]: 64.9 mL/min/kg; AUC(0-inf) [18]: 3890 ng·h/mL; Activity [19]: Active |
| 4.44e-05 | 15 | 6110 | 30500 | 4750 | 6.34 10^4L/mol | 43200 | 7.58 | CCCCCCCCC=CCCCCCCCC(=O)OC(C)CCCCn1c(=O)c2c(ncn2C)n(C)c1=O (configuration not stated) | Active | Active | Active | Active | Active | Active | Active | Active | Non-Toxic | Non-Toxic | Active | Active | Drug uptake [27]: 56 ng; Activity [2]: Active; half-life [4]: 4.44 h; MRT ([5]; Wistar, read-out: MRT): 7.91 h; Stability [30]: 9.74%; Activity [28]: Active; clearance [29]: 40.3 mL/min/kg; AUC(0-inf) [18]: 6640 ng·h/mL; Activity [19]: Active |
| 6.39e-05 | 2.59 | 16200 | 77100 | 4900 | 2.7 10^4L/mol | 98700 | 0.81 | CCCCC/C=C/CC=CCCCCCCCC(=O)OC(C)CCCCn1c(=O)c2c(ncn2C)n(C)c1=O (configuration not stated) | Active | Active | Active | Active | Active | Active | Active | Active | Non-Toxic | Non-Toxic | Active | Active | Drug uptake [27]: Active; half-life [4]: 3.12 h; MRT ([5]; Wistar, read-out: MRT): 6.55 h; AUC [18]: 16984.11 ng·h/mL |
